# From US20200323823A1, “METHODS FOR THE TREATMENT OF DEPRESSION” (Praxis Precision Medicines, Inc., priority 2018, published 2020)
# Like-named read-outs stand apart in the source and are kept apart here.
# Legend:
# [1] = test system: patients with severe major depressive disorder (MDD); assay: Open-label study in severe MDD, Part A, HAM-D efficacy; format: in vivo, human
# Description: The study is an open-label, study comprised of two dosing periods, Part A and Part B, during which patients were treated with an oral suspension of Compound 1. Part A was an open-label assessment of two dose levels of Compound 1 (45 mg qHS Cohort 1 and 80 mg qHS Cohort, i.e., once daily administration at bedtime) administered for 7 days inpatient followed by 7 days outpatient. PRAX-114 was administered at 4 PM on Day 1 in order to collect post-dosing PK samples that could not be collected with qHS dosing.
# (§1) In Part A, participants were administered daily doses of Compound 1 (45 mg Cohort and 80 mg Cohort) at 4 PM on Day 1 and qHS on all other study days for 7 days inpatient followed by 7 days outpatient (with subsequent Cohorts receiving up to 120 mg qHS). Participants checked into the clinic on Day 1. During this period the following assessments were performed: adverse event assessments, vital signs, physical examinations, blood and urine samples for safety assessments, ECGs, C-SSRS assessments, blood samples for PK, and efficacy assessments (HAM-D, MADRS, HAM-A, CGI [CGI-S and CGI-I], PSQI, and SDQ). Baseline assessments occurred on Day 1 prior to administration of study drug. On Day 8, prior to discharge, participants were supplied with sufficient Compound 1 to complete 7 days of dosing.
# Patients were administered daily doses of Compound 1 for 7 days inpatient followed by 7 days outpatient.
# In the 45 mg Cohort, patients were administered once daily dose of 45 mg of Compound 1 at bedtime for 7 days inpatient followed by once daily dose of 45 mg of Compound 1 at bedtime for 7 days outpatient.
# In the 80 mg Cohort, patients were administered once daily dose of 80 mg of Compound 1 at bedtime for 7 days inpatient followed by once daily dose of 80 mg of Compound 1 at bedtime for 7 days outpatient.
# In Part A, HAM-D, MADRS, HAM-A, CGI-S, and CGI-I values were collected in the morning of Days 1, 2, 3, 4, 5, 6, 7, 8, 15, 21 and 28. PSQI and SDQ values will be collected on Days 1, 8, 15, 21 and 28. Part B: In Part B, HAM-D, MADRS, HAM-A, CGI-S, CGI-I, PSQI and SDQ values will be collected on the days described for Part A.
# HAM-D Response was defined as a reduction from baseline of ≥50% in total HAM-D score. HAM-D remission was defined as a total HAM-D score of ≤7.
# For both parts of the clinical trial, the HAM-D total score and change from baseline values will be summarized by treatment group and time point. In addition, the change from baseline in HAM-D total score will also be analyzed using paired t-tests or similar methods. The null hypothesis of this test is that the mean difference in HAM-D total score between paired observations (i.e., pre- and post-treatment) is zero. Similar analysis methods will be used for all secondary and exploratory efficacy variables.
# [2] = Food Effect Cohort (Cohort 4), single 30 mg dose fasted vs high-fat, high calorie meal, plasma PK; details: human, po, t 1/2, Cohort 4, single 30 mg oral, n = 10, Mean (SD)
# Description: (§2) The Day 1 dose was administered after a minimum of 10 hour fasting. No additional fluid intake was allowed until 1 hour after drug administration. A standard meal was given at least 4 hours post-dose. The Day 5 dose was administered following a high-fat, high calorie meal. Participants remained at the clinical site for a total of 8 days to complete PK sampling after the second dose.
# (§3) Pharmacokinetic variables (including but not limited to Cmax, Tmax and AUC(0-last)), were calculated using non-compartmental analysis.
# (§4) Urine (Cohort 4): No urine analysis was conducted in Cohort 4.
# [3] = human, in vivo
# Description: (§5) Healthy subjects aged 18 to 55 years were treated with an oral suspension of Compound 1 to study the safety, tolerability, pharmacokinetics and pharmacodynamics of Compound 1 in healthy subjects.
# (§6) The study was a randomized, double-blind, placebo-controlled multiple escalating dose study comprised of 3 cohorts that each received an oral suspension. Each cohort consisted of two groups: one group treated with Compound 1 and another treated with placebo. In each cohort, the ratio of Compound 1-treated subjects to placebo-treated subjects was 3:1.
# (§7) The Compound 1-treated subjects of Cohort 1 were treated with 15.0 mg of Compound 1 once per day (QD). The Compound 1-treated subjects of Cohort 2 were treated with 30.0 mg of Compound 1 QD. The Compound 1-treated subjects of Cohort 3 were treated with 60.0 mg of Compound 1 QD.
# (§8) Patients in each cohort were treated with Compound 1 for 14 consecutive days, unless dosing was halted by the Safety Review Committee (SRC). The dosing of subjects in each of the cohorts was staggered with the decision to dose escalate based on SRC review of a minimum of 14 days of observation of safety and tolerability data and review of the available plasma PK data from the preceding cohort(s). Thus, dose escalation was predicated on tolerability of the prior cohorts.
# (§9) Compound 1 was administered under fasted conditions (no food or drink, except water, for at least 10 hours prior to dosing). Immediately after administration of Compound 1, the subject was be administered 240 mL water. No additional fluid intake was allowed until 1 hour after Compound 1 administration.
# (§10) Cohort 1 subjects received a single 15.0 mg dose of a Compound 1 suspension on the morning of Days 1-14. Cohort 2 subjects received a single 30.0 mg dose of a Compound 1 suspension on the morning of Days 1-14. Cohort 3 subjects received a single 60.0 mg dose of a Compound 1 suspension on the morning of Days 1-14. For all cohorts, the last treatment was administered on the morning of Day 14.
# (§11) Data were obtained from the blood plasma samples collected from each cohort according to the schedule provided.
# (§12) Plasma samples were analyzed to determine Compound 1 concentrations using a validated assay method. Pharmacokinetic variables (including but not limited to Cmax, Tmax and AUC(0-last)), were calculated using non-compartmental analysis. PK parameters for Compound 1 were derived from the plasma concentration data using non-compartmental analysis with Phoenix™ WinNonlin® v 8.0 (Pharsight Corporation, USA).
# (§13) For each cohort, blood samples were collected on Days 1, 2, 3, 4, 5, 6 and 14 at the following time points: Day 1 at pre-dose (0 hour), 0.25, 0.5, 0.75, 1, 1.5, 2, 2.5, 3, 4, 6, 8, 12, 16 h post-dose; Day 2 at pre-dose (24 h), Day 3 at pre-dose (48 h), Day 4 at pre-dose (72 h), Day 5 at pre-dose (96 h), Day 6 at pre-dose (120 h); Day 14 at pre-dose 0.25, 0.5, 0.75, 1, 1.5, 2, 2.5, 3, 4, 6, 8, 12, 16, 24, 36, 48, and 72 hours. Trough level blood samples were collected on Days 2, 3, 4, 5, 6 and 14, prior to the morning dose administrations.
# (§14) Descriptive statistics were calculated for plasma and urine PK parameter and concentration data, and summarized by study day and time point. Arithmetic means, coefficient of variation (CV), standard deviation, median, minimum, and maximum values, and number of observations were calculated for all PK parameters and trough concentration data. Except for Tmax, the geometric mean, geometric standard deviation, and geometric CV were provided for all PK parameter and concentration data.
# [4] = in vivo, po
# Description: as §2, §3, §4
# clinical = details: human, in vivo; for AUC(0-inf): AUCinf
# Description: as §5, §6, §7, §8, §9, §10, §11, §12, §13, §14
# [5] = Safety/tolerability in MDD patients, Part A; format: in vivo, human; details: 80 mg Cohort, compared to the 45 mg Cohort
# Description: as §1
# Adverse events (AEs) will be monitored throughout the duration of the study.
# [6] = Randomized, double-blind, placebo-controlled multiple escalating dose study, plasma PK of Compound 1 oral suspension (Cohorts 1-3); details: for Vd/F: Vz/F
# Description: as §5, §6, §7, §8, §9, §10, §11, §12, §13, §14
# [7] = Cohort 1, 15.0 mg QD oral, Day 14, Mean
# [8] = Cohort 2, 30.0 mg QD oral, Day 14, Mean
structure (smiles),measurement,setting,value
"COC[C@@]1(O)CC[C@@]2(C)[C@@H](CC[C@@H]3[C@@H]2CC[C@]2(C)[C@@H](C(=O)Cn4ccnc4)CC[C@@H]32)C1 [Compound 1, 3α-Hydroxy-3β-methoxymethyl-21-(1′-imidazolyl)-5α-pregnan-20-one]",least squares Mean Change from Baseline in HAM-D score,"[1]; 45 mg Cohort, Day 7",−17.8
same,least squares Mean Change from Baseline in HAM-D score,"[1]; 45 mg Cohort, Day 15",−13.2
same,patients who met the HAM-D Response or Remission criterion,"[1]; 45 mg Cohort, once daily at bedtime, Day 7",11 of the 13
same,patients who met the HAM-D Response or Remission criteria,"[1]; 45 mg Cohort, once daily at bedtime, Day 15",8 of the 13
same,least squares Mean Change from Baseline in HAM-D score,"[1]; 80 mg Cohort, Day 7",−20.0
same,least squares Mean Change from Baseline in HAM-D score,"[1]; 80 mg Cohort, Day 15",−16.0
same,patients who met the HAM-D Response or Remission criteria,"[1]; 80 mg Cohort, once daily at bedtime, Day 15",6 of the 7
same,Efficacy by background antidepressant,[1]; as monotherapy and in combination with another antidepressant,Efficacy was observed
same,symptoms of moderate to severe MDD,[1]; daily dose of 45 mg or 80 mg,exhibited reduced symptoms of moderate to severe MDD
same,half-life,[2]; Fasted (Day 1),11.2 h
same,half-life,[2]; Fed (Day 1 as printed),11.3 h
same,"dose dependence of Cavg, AUCss and AUCinf",[3],proportional increase
same,dose dependence of Cmax and AUC parameters at steady state,[3]; po,approximate proportional increase
same,steady state clearance,[3]; po,approximately 31 L/h
same,accumulation factor of the dosing interval (ratio of AUCDay 14/AUCDay 1),"[3]; po, 15 mg",approximately 1.25
same,Cmax,"[3]; po, 30 mg",156.00 ng/mL
same,accumulation factor of the dosing interval (ratio of AUCDay 14/AUCDay 1),"[3]; po, 30 mg",approximately 1.25
same,Tmax,"[3]; po, 60 mg",1.00 h
same,accumulation factor of the dosing interval (ratio of AUCDay 14/AUCDay 1),"[3]; po, 60 mg",0.89
same,Tmax,[4]; human,"1.00 (0.75, 1.77) h"
same,Cmax higher under fasting conditions compared to fed conditions,"[4]; human, 30 mg",1.5-1.6 times
same,"t½, fasted versus fed conditions",[4],similar
same,Tmax,clinical,≤ 2 h
same,AUC,"clinical; po, 15 mg, AUC0-tau",362 ng·h/mL
same,AUC(0-inf),"clinical; po, 15 mg",600 ng·h/mL
same,AUC,"clinical; po, 15 mg, AUCss",492 ng·h/mL
same,Cmax,"clinical; po, 15 mg",56 ng/mL
same,Cmax,"clinical; po, 15 mg, ss",65 ng/mL
same,Tmax,"clinical; po, 15 mg",1.03 h
same,Tmax,"clinical; po, 15 mg, ss",1.07 h
same,AUC,"clinical; po, 30 mg, AUC0-tau",842 ng·h/mL
same,AUC(0-inf),"clinical; po, 30 mg",1230 ng·h/mL
same,AUC,"clinical; po, 30 mg, AUCss",1020 ng·h/mL
same,Cmax,"clinical; po, 30 mg",133 ng/mL
same,Cmax,"clinical; po, 30 mg, ss",164 ng/mL
same,Tmax,"clinical; po, 30 mg, ss",0.964 h
same,AUC,"clinical; po, 60 mg, AUC0-tau",2340 ng·h/mL
same,AUC(0-inf),"clinical; po, 60 mg",2370 ng·h/mL
same,AUC,"clinical; po, 60 mg, AUCss",2080 ng·h/mL
same,Cmax,"clinical; po, 60 mg",364 ng/mL
same,Cmax,"clinical; po, 60 mg, ss",355 ng/mL
same,Tmax,"clinical; po, 60 mg",1.14 h
same,Tmax,"clinical; po, 60 mg, ss",0.969 h
same,tolerability / Adverse Event profile,[5],well tolerated with no change in Adverse Event profile
same,CLss/F,"[6]; Cohort 1, 15.0 mg QD oral, Day 14, Geo Mean",30.497 L/h
same,CLss/F,[6]; [7],31.415 L/h
same,t1/2,[6]; [7],14.772 h
same,CLss/F,"[6]; Cohort 1, 15.0 mg QD oral, Day 14, Median",30.41 L/h
same,CLss/F,"[6]; Cohort 2, 30.0 mg QD oral, Day 14, Geo Mean",30.178 L/h
same,CLss/F,[6]; [8],30.949 L/h
same,t1/2,[6]; [8],12.701 h
same,CLss/F,"[6]; Cohort 2, 30.0 mg QD oral, Day 14, Median",30.12 L/h
same,CLss/F,"[6]; Cohort 3, 60.0 mg QD oral, Day 14, Geo Mean",30.398 L/h
same,CLss/F,"[6]; Cohort 3, 60.0 mg QD oral, Day 14, Mean",32.142 L/h
same,CLss/F,"[6]; Cohort 3, 60.0 mg QD oral, Day 14, Median",28.45 L/h
same,Vd/F,"[6]; human, plasma, po, 15 mg, Cohort 1, 15.0 mg QD oral, Day 14, Geo Mean",643 L
same,Vd/F,"[6]; human, plasma, po, 15 mg, Cohort 1, 15.0 mg QD oral, Day 14, Mean",655 L
same,Vd/F,"[6]; human, plasma, po, 15 mg, Cohort 1, 15.0 mg QD oral, Day 14, Median",657 L
same,half-life,"[6]; human, plasma, po, 15 mg, t1/2, Cohort 1, 15.0 mg QD oral, Day 14, Geo Mean",14.6 h
same,half-life,"[6]; human, plasma, po, 15 mg, t1/2, Cohort 1, 15.0 mg QD oral, Day 14, Mean",14.8 ± 2.26 h
same,half-life,"[6]; human, plasma, po, 15 mg, t1/2, Cohort 1, 15.0 mg QD oral, Day 14, Median",15.3 h
same,Cmax,"[6]; human, plasma, po, 30 mg, Cmax, Cohort 2, 30.0 mg QD oral, Day 1, Geometric Mean",120 ng/mL
same,Vd/F,"[6]; human, plasma, po, 30 mg, Cohort 2, 30.0 mg QD oral, Day 14, Geo Mean",551 L
same,Vd/F,"[6]; human, plasma, po, 30 mg, Cohort 2, 30.0 mg QD oral, Day 14, Mean",570 L
same,Vd/F,"[6]; human, plasma, po, 30 mg, Cohort 2, 30.0 mg QD oral, Day 14, Median",514 L
same,half-life,"[6]; human, plasma, po, 30 mg, t1/2, Cohort 2, 30.0 mg QD oral, Day 14, Geo Mean",12.6 h
same,half-life,"[6]; human, plasma, po, 30 mg, t1/2, Cohort 2, 30.0 mg QD oral, Day 14, Mean",12.7 ± 1.23 h
same,half-life,"[6]; human, plasma, po, 30 mg, t1/2, Cohort 2, 30.0 mg QD oral, Day 14, Median",12.9 h
same,Vd/F,"[6]; human, plasma, po, 60 mg, Cohort 3, 60.0 mg QD oral, Day 14, Geo Mean",533 L
same,Vd/F,"[6]; human, plasma, po, 60 mg, Cohort 3, 60.0 mg QD oral, Day 14, Mean",574 L
same,Vd/F,"[6]; human, plasma, po, 60 mg, Cohort 3, 60.0 mg QD oral, Day 14, Median",531 L
same,half-life,"[6]; human, plasma, po, 60 mg, t1/2, Cohort 3, 60.0 mg QD oral, Day 14, Geo Mean",12.2 h
same,half-life,"[6]; human, plasma, po, 60 mg, t1/2, Cohort 3, 60.0 mg QD oral, Day 14, Mean",12.2 ± 1.32 h
same,half-life,"[6]; human, plasma, po, 60 mg, t1/2, Cohort 3, 60.0 mg QD oral, Day 14, Median",12.4 h
same,half-life,"[6]; human, plasma, po, mean t1/2, steady state, across Cohorts 1-3 (15.0-60.0 mg QD oral)",12.2 to 14.8 h
